Results on 5 molecules are retold here after PubChem BioAssay (NCI).

A word on the TGI: it is the concentration at which net growth stops. Higher therefore signals less potent growth arrest. By GI50 is commonly meant the concentration that inhibits growth by half.

Common to all, as to assay: DTP human tumour cell line panel, 48 h
Test [1] has as its system ACHN renal.
The test system of test [2] is EKVX NSCLC.
Test [3] has as its system HCT-116 colon.
The subject of test [4] is HS 578T breast.
The test system of test [5] is IGROV1 ovarian.
The test system of test [6] is K-562 leukemia.
The subject of test [7] is M14 melanoma.
Test [8] deals with SK-MEL-5 melanoma.
Test [9] relates to SR leukemia.
The test system of test [10] is SW-620 colon.

Each structure is given as a SMILES string.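 In this assay, cells in 96-well plates receive the compound at five concentrations for 48 hours. Endpoints are linearly interpolated between the surrounding concentrations. At the GI50, growth is halved. The concentration for full growth arrest is given as TGI.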 Bounds are passed on as bounds.

For the molecule `Cc1cc2oc(C)c(S(=O)(=O)NC(=O)Nc3ccc(Cl)cc3)c(=O)c2c(=O)o1`, the TGI in test [1], in [2], in [3], in [4], in test [5] and in test [6] was over 100 µM throughout. Moreover, the TGI in test [7], in test [8], in test [9] and in [10] was over 100 µM each time.
`CCCCCN(CCCCC)CC(C)(C)C(O)c1ccc(OC)c2ccccc12` (stereo unspecified): the concentration for total growth inhibition (TGI) in test [1] worked out at 27.2 µM; in test [2] it was 25.9 µM; in test [3], 61.9 µM; in test [4] it was 39.8 µM; in [5], 14.3 µM; in test [6], 25 µM. In addition, the TGI in [7] came out at 21.7 µM; in [8], 12.8 µM; in test [9] it was 11.3 µM; in test [10] it was 27.3 µM.
As to `Cc1ccc(S(=O)(=O)N/N=C2/CCC(C(C)(C)C)CC2Br)cc1` (stereo unspecified), the TGI in test [1] was over 100 µM; in test [2] it was over 100 µM; in [3], 51.5 µM; in [4], 47.1 µM; in [5], over 100 µM; in [6], 40.1 µM. Besides, the TGI in [7] was 35.4 µM; in test [8] it was 29.5 µM; in test [9], over 100 µM; in test [10] it was 53.1 µM.
As to `COc1c2ccsc2c(OC)c2ccsc12`, the total growth inhibition concentration (TGI) in [1], in test [2], in [3], in test [4], in test [5] and in test [6] was over 100 µM in each case. Further, the total growth inhibition concentration (TGI) in test [7], in [8], in test [9] and in [10] was over 100 µM in each case.
Consider `CCOC(=O)C(=CN1CCNC1=S)C(=O)OCC`, for which the TGI in test [1], in [2], in test [3], in test [4], in [5] and in [6] was over 100 µM throughout. Further, the TGI in test [7], in [8], in [9] and in test [10] was over 100 µM throughout. Besides, in test [4], the GI50 was over 100 µM.
